Measurements published in US20010009931A1, “Protective varnish for dentin” (priority 1997, published 2001).

Assays:
[1] = Leaching test of cured plaques in artificial saliva (Ringer solution), UV/Vis spectroscopy; type: physicochemical
Protocol: These plaques were light-cured and stored in artificial saliva (Ringer solution) for 20 days at 37° C. By UV/Vis spectroscopy, no triclosan could be found in the artificial saliva.
Again, plaques were made from a mixture of the varnish components except for the solvent ethanol. These plaques were light-cured and stored in artificial saliva (Ringer solution) for 14 days at 37° C. By UV/Vis spectroscopy, some triclosan could be found in the artificial saliva.

bacteria = details: long-term experiments; cited from earlier work

Oc1cc(Cl)ccc1Oc1ccc(Cl)cc1Cl [triclosan, 2,4,4′-trichloro-2′-hydroxydiphenyl ether]
triclosan embedded in the plaque leached out ([1]; plaque with 6.25 wt % triclosan based on resin mixture, 20 days at 37° C.): less than 0.1 wt %
leaching of the overall triclosan content of the plaque ([1]; plaque with 40 wt % triclosan, 14 days at 37° C.): 0.2 wt %
development of bacterial resistance (bacteria): no development of bacterial resistance
